Laboratory results: patent US20100286092A1, “BETA-LACTAMASE INHIBITORS” (priority 2007, published 2010)

Key:
Settings in all cases: in the presence of a fixed amount (8 μg/mL) of Ceftazidime; CAMHB, 16-20 hours at 37° C.
[1] = test system: E. cloacae expressing the Class C P99+; type: cell-based
Description: (§1) To determine the ability of test compounds to potentiate the inhibition of the growth of bacterial strains producing beta-lactamase enzymes, classic cell based screening assays were employed. Four bacteria strains producing beta-lactamase enzymes were used: K. pneumoniae expressing the Class A Extended Spectrum Beta-Lactamase (ESBL) CTX-M-15, E. coli expressing the Class A ESBL SHV-5, E. cloacae expressing the Class C P99+, and K. pneumoniae expressing the Class A carbapenemase KPC-2. In order to evaluate the ability of test compounds to inhibit beta-lactamase activity, Applicants used a modification of the broth microdilution assay. The assay was conducted in Cation Adjusted Mueller Hinton Broth (CAMHB, BD #212322, BD Diagnostic Systems, Sparks, Md.). Bacteria strains were grown for 3-5 hours in CAMBH broth. All four strains were grown in presence of 50 μg/mL ampicillin to ensure resistance is maintained. In the meantime, test compounds were diluted in DMSO to a 0.1 mg/mL stock. The compounds were added to a microtiter plate and were diluted in 2-fold serial dilutions in CAMHB in a final concentration range of 8 μg/mL to 0.015 μg/ml. An overlay of CAMHB containing a cephalosporin was added to the compounds at a final static concentration of 8 μg/ml. […] Each of these compound plates are made in quadruplicate, one for each bacteria strain. In addition to the titration of test compounds the MICs of a panel of cephalosporins is also tested to ensure the strains are behaving consistently from test to test. Once the test compound and cephalosporin are added the plates can be inoculated. Inocula are conducted according to CLSI broth microdilution method. After inoculation the plates are incubated for 16-20 hours at 37° C. then the Minimal Inhibitory Concentration (MIC) of the test compound is determined visually.
(§2) Using the methodology described above, examples of the current invention were evaluated for their ability to inhibit the growth of β-lactamase producing bacteria in the presence of a β-lactam antibiotic. […] NT=Not Tested.

[2] = test system: K. pneumoniae expressing the Class A Extended Spectrum Beta-Lactamase (ESBL) CTX-M-15; type: cell-based
Description: as §1, §2

[3] = test system: K. pneumoniae expressing the Class A carbapenemase KPC-2
Description: as §1, §2

Compound: O=C(Cc1cccs1)N[C@@H](Cc1ccc(C(=O)O)cc1O)B(O)O [Example 2, (1R)-1-(2-thiophene-2-yl-acetylamino)-2-(2-hydroxy-4-carboxyphenyl)ethyl-1-boronic acid]
- MIC of example compound, E. cloacae P99 AmpC + 8 μg/mL CAZ [1]: A (A represents an MIC>8 μg/mL)

Compound: O=C(Cc1cccc(O)c1)N[C@@H](Cc1cccc(C(=O)O)c1O)B(O)O [Example 3, (1R)-1-(3-hydroxy-phenyl)acetylamino-1-(3-carboxy-2-hydroxy)benzyl-methyl boronic acid]
- MIC of example compound, K. pneumoniae CTX-M-15 + 8 μg/mL CAZ [2]: C (C represents an MIC of <1 μg/mL)
- MIC of example compound, K. pneumoniae KPC-2 + 8 μg/mL CAZ [3]: C (C represents an MIC of <1 μg/mL)

Compound: O=C(CCC(=O)c1cccs1)N[C@@H](Cc1cccc(C(=O)O)c1O)B(O)O [Example 5, (1R)-1-(4-oxo-4-thiophen-2-yl-butyrylamino)-2-(2-hydroxy-3-carboxyphenyl)ethyl-1-boronic acid]
- MIC of example compound, E. cloacae P99 AmpC + 8 μg/mL CAZ [1]: C (C represents an MIC of <1 μg/mL)
- MIC of example compound, K. pneumoniae CTX-M-15 + 8 μg/mL CAZ [2]: C (C represents an MIC of <1 μg/mL)
- MIC of example compound, K. pneumoniae KPC-2 + 8 μg/mL CAZ [3]: C (C represents an MIC of <1 μg/mL)

Compound: CC(=O)N[C@@H](Cc1cccc(C(=O)O)c1O)B(O)O [Example 6, (1R)-1-(2-acetylamino)-2-(2-hydroxy-3-carboxyphenyl)ethyl-1-boronic acid]
- MIC of example compound, K. pneumoniae CTX-M-15 + 8 μg/mL CAZ [2]: C (C represents an MIC of <1 μg/mL)
- MIC of example compound, K. pneumoniae KPC-2 + 8 μg/mL CAZ [3]: C (C represents an MIC of <1 μg/mL)

Compound: NC(=O)COc1cccc(CC(=O)N[C@@H](Cc2cccc(C(=O)O)c2O)B(O)O)c1 [Example 8, (1R)-1-[(3-carbamoylmethoxy)-phenyl]-acetylamino-(3-carboxy-2-hydroxy)benzyl-methylboronic acid]
- MIC of example compound, K. pneumoniae CTX-M-15 + 8 μg/mL CAZ [2]: C (C represents an MIC of <1 μg/mL)
- MIC of example compound, K. pneumoniae KPC-2 + 8 μg/mL CAZ [3]: C (C represents an MIC of <1 μg/mL)

Compound: N[C@H](C(=O)N[C@@H](Cc1cccc(C(=O)O)c1O)B(O)O)c1ccccc1.O=CO [Example 12, (1R,2′S)-1-(2-amino-2-phenylacetylamino)-2-(2-hydroxy-3-carboxyphenyl)ethyl-1-boronic acid formate salt]
- MIC of example compound, K. pneumoniae CTX-M-15 + 8 μg/mL CAZ [2]: C (C represents an MIC of <1 μg/mL)
- MIC of example compound, K. pneumoniae KPC-2 + 8 μg/mL CAZ [3]: C (C represents an MIC of <1 μg/mL)

Compound: O=C(Cc1cc(O)ccc1O)N[C@@H](Cc1cccc(C(=O)O)c1O)B(O)O [Example 18, (1R)-1-(2-(2,5-dihydroxyphenyl)acetylamino)-2-(2-hydroxy-3-carboxyphenyl)ethyl-1-boronic acid]
- MIC of example compound, K. pneumoniae CTX-M-15 + 8 μg/mL CAZ [2]: C (C represents an MIC of <1 μg/mL)

Compound: O=C(COCc1ccccc1)N[C@@H](Cc1cccc(C(=O)O)c1O)B(O)O [Example 22, (1R)-1-(2-benzyloxyacetylamino)-2-(2-hydroxy-3-carboxyphenyl)ethyl-1-boronic acid]
- MIC of example compound, K. pneumoniae CTX-M-15 + 8 μg/mL CAZ [2]: C (C represents an MIC of <1 μg/mL)
- MIC of example compound, K. pneumoniae KPC-2 + 8 μg/mL CAZ [3]: C (C represents an MIC of <1 μg/mL)

Compound: CCCCCCC(=O)N[C@@H](Cc1cccc(C(=O)O)c1O)B(O)O [Example 24, (1R)-1-(heptanoylamino)-2-(2-hydroxy-3-carboxyphenyl)ethyl-1-boronic acid]
- MIC of example compound, K. pneumoniae CTX-M-15 + 8 μg/mL CAZ [2]: C (C represents an MIC of <1 μg/mL)
- MIC of example compound, K. pneumoniae KPC-2 + 8 μg/mL CAZ [3]: C (C represents an MIC of <1 μg/mL)

Compound: CC(C)(C)CC(=O)N[C@@H](Cc1cccc(C(=O)O)c1O)B(O)O [Example 25, (1R)-1-(3,3-Dimethyl-butyrylamino)-(3-carboxy-2-hydroxy)benzyl-methylboronic acid]
- MIC of example compound, K. pneumoniae CTX-M-15 + 8 μg/mL CAZ [2]: C (C represents an MIC of <1 μg/mL)
- MIC of example compound, K. pneumoniae KPC-2 + 8 μg/mL CAZ [3]: C (C represents an MIC of <1 μg/mL)

Compound: O=C(O)c1cccc(C[C@H](NC(=O)c2cccc3ccccc23)B(O)O)c1O [Example 27, (1R)-1-(1-naphthoylamino)-2-(2-hydroxy-3-carboxyphenyl)ethyl-1-boronic acid]
- MIC of example compound, K. pneumoniae KPC-2 + 8 μg/mL CAZ [3]: C (C represents an MIC of <1 μg/mL)

Compound: O=C(N[C@@H](Cc1cccc(C(=O)O)c1O)B(O)O)c1cccc(O)c1 [Example 28, (1R)-1-(3-hydroxybenzoylamino)-2-(2-hydroxy-3-carboxyphenyl)ethyl-1-boronic acid]
- MIC of example compound, K. pneumoniae CTX-M-15 + 8 μg/mL CAZ [2]: C (C represents an MIC of <1 μg/mL)
- MIC of example compound, K. pneumoniae KPC-2 + 8 μg/mL CAZ [3]: C (C represents an MIC of <1 μg/mL)

Compound: Cc1ccccc1C(=O)N[C@@H](Cc1cccc(C(=O)O)c1O)B(O)O [Example 30, (1R)-1-(2-methylbenzoylamino)-2-(2-hydroxy-3-carboxyphenyl)ethyl-1-boronic acid]
- MIC of example compound, K. pneumoniae KPC-2 + 8 μg/mL CAZ [3]: C (C represents an MIC of <1 μg/mL)

Compound: O=C(N[C@@H](Cc1cccc(C(=O)O)c1O)B(O)O)c1ccc(Cl)nc1 [Example 31, (1R)-1-(6-Chloro-pyridine-3-carbonyl)-amino-1-(3-carboxy-2-hydroxy)benzyl-methylboronic acid]
- MIC of example compound, K. pneumoniae CTX-M-15 + 8 μg/mL CAZ [2]: C (C represents an MIC of <1 μg/mL)
- MIC of example compound, K. pneumoniae KPC-2 + 8 μg/mL CAZ [3]: C (C represents an MIC of <1 μg/mL)

Compound: O=C(N[C@@H](Cc1cccc(C(=O)O)c1O)B(O)O)c1ccc(Cl)cc1 [Example 32, (1R)-1-(4-Chloro-benzoyl)-amino-1-(3-carboxy-2-hydroxy)benzyl-methylboronic acid]
- MIC of example compound, K. pneumoniae KPC-2 + 8 μg/mL CAZ [3]: C (C represents an MIC of <1 μg/mL)

Compound: COc1ccc(C(=O)N[C@@H](Cc2cccc(C(=O)O)c2O)B(O)O)cc1 [Example 33, (1R)-1-(4-Methoxybenzoyl)-amino-1-(3-carboxy-2-hydroxy)benzyl-methylboronic acid]
- MIC of example compound, K. pneumoniae KPC-2 + 8 μg/mL CAZ [3]: C (C represents an MIC of <1 μg/mL)

Compound: O=C(N[C@@H](Cc1cccc(C(=O)O)c1O)B(O)O)c1ccccc1O [Example 35, (1R)-1-(2-hydroxybenzoylamino)-2-(2-hydroxy-3-carboxyphenyl)ethyl-1-boronic acid]
- MIC of example compound, K. pneumoniae KPC-2 + 8 μg/mL CAZ [3]: C (C represents an MIC of <1 μg/mL)

Compound: O=C(Cn1cccn1)N[C@@H](Cc1cccc(C(=O)O)c1O)B(O)O [Example 40, (1R)-1-(Pyrazol-1-yl-acetylamino)-2-(2-hydroxy-3-carboxyphenyl)ethyl-1-boronic acid]
- MIC of example compound, K. pneumoniae CTX-M-15 + 8 μg/mL CAZ [2]: C (C represents an MIC of <1 μg/mL)
- MIC of example compound, K. pneumoniae KPC-2 + 8 μg/mL CAZ [3]: C (C represents an MIC of <1 μg/mL)

Compound: NCc1cccc(C(=O)N[C@@H](Cc2cccc(C(=O)O)c2O)B(O)O)c1.O=CO [Example 42, (1R)-1-(3-aminomethyl)-benzoylamino-1-(3-carboxy-2-hydroxy)benzyl-methyl boronic acid formate]
- MIC of example compound, E. cloacae P99 AmpC + 8 μg/mL CAZ [1]: C (C represents an MIC of <1 μg/mL)
- MIC of example compound, K. pneumoniae KPC-2 + 8 μg/mL CAZ [3]: C (C represents an MIC of <1 μg/mL)

Compound: O=C(CN1C(=O)c2ccccc2C1=O)N[C@@H](Cc1cccc(C(=O)O)c1O)B(O)O [Example 45, (1R)-1-(2-(1,3-dioxoisoindolin-2-yl)acetylamino)-2-(2-hydroxy-3-carboxyphenyl)ethyl-1-boronic acid]
- MIC of example compound, K. pneumoniae KPC-2 + 8 μg/mL CAZ [3]: C (C represents an MIC of <1 μg/mL)
